Earlier results in patent US20240217930A1 (priority 2021, published 2024).

Experiments:
[1] = trials performed in cats; cited from earlier work
[2] = tested on: live virus; conditions: cited from earlier work
[3] = tested on: ten further coronavirus strains; conditions: read-out: Ki against ten further coronavirus strains; cited from earlier work

CC(C)C[C@H](NC(=O)OCc1ccccc1)C(=O)N[C@@H](C[C@@H]1CCNC1=O)C(O)S(=O)(=O)[O-].[Na+] (stereo partly drawn) [GC376]
side effects in cats [1]: has shown side effects

PF-00835231
activity in cell-based live virus assays [2]: ~1 µM
Ki [3]: 0.03 to 4 nM
